Data as given in ChEMBL document CHEMBL4819133, “Exploiting the HSP60/10 chaperonin system as a chemotherapeutic target for colorectal cancer” (Bioorg Med Chem, 2021).

How the values were obtained:
E. coli GroEL/ES [1] = target: T1, E. coli GroEL/ES (Escherichia coli, UniProt P0A6F5); assay: Inhibition of Escherichia coli GroEL/ES-mediated refolding of the denatured malate dehydrogenase; assay type: protein-complex assay
FHC = assay: Cytotoxicity against human FHC cells assessed as reduction in cell viability measured after 48 hrs by AlamarBlue assay; assay type: cell-based
E. coli GroEL/ES [2] = target: T1, E. coli GroEL/ES; assay: Inhibition of Escherichia coli GroEL/ES-mediated refolding of the denatured rhodanese; assay type: protein-complex assay
HT-29 = assay: Cytotoxicity against human HT-29 cells assessed as reduction in cell viability measured after 48 hrs by AlamarBlue assay; assay type: functional, cell-based; conditions: HT-29, 48 h
HSP60/HSP10 = HSP60/HSP10 (Homo sapiens, UniProt P10809); assay: Inhibition of human mitochondrial HSP60/10-mediated refolding of the denatured malate dehydrogenase; assay type: mitochondria, Mitochondria
Chain of HSP60/HSP10 (P10809 whole entry): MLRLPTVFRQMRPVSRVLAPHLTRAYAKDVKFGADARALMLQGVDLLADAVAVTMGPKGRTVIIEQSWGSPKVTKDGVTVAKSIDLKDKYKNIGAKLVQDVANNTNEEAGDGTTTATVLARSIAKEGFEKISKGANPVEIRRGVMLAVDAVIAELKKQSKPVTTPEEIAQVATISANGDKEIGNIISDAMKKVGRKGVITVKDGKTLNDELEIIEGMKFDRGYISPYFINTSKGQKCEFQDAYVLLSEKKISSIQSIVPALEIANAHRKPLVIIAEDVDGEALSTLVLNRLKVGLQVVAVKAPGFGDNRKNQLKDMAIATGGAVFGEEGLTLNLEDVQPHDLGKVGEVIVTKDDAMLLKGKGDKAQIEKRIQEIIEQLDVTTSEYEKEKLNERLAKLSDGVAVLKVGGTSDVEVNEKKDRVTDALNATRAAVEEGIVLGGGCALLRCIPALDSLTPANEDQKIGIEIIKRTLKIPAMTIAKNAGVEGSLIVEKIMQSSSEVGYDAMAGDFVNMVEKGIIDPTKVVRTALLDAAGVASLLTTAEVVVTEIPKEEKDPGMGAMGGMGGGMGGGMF
Chain of HSP60/HSP10 (P61604 whole entry, further chain): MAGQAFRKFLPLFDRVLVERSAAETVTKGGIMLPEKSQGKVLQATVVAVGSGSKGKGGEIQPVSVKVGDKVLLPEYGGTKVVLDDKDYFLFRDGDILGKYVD

[3] = Cytotoxicity against human THLE-3 cells assessed as reduction in cell viability measured after 48 hrs by AlamarBlue assay; assay type: cell-based; conditions: for CC50 at 48 h: THLE-3 cells; for CC50: thle-3, 48 h
[4] = Inhibition of refolded MDH (unknown origin)-mediated oxidation of NADPH in presence of mesoxalic acid treated with compound after refolding of the denatured enzyme; parameters: species or system Homo sapiens
HCT-116 = assay: Cytotoxicity against human HCT-116 cells assessed as reduction in cell viability measured after 48 hrs by AlamarBlue assay; assay type: functional, cell-based; conditions: HCT-116, 48 h
[5] = (§1) Cytotoxicity against human HEK293 cells assessed as reduction in cell viability measured after 48 hrs by AlamarBlue assay; assay type: cell-based; conditions: HEK293 cells
[6] = Cytotoxicity against human FHs74Int cells assessed as reduction in cell viability measured after 48 hrs by AlamarBlue assay; assay type: cell-based
[7] = target: T2, Thiosulfate sulfurtransferase (Homo sapiens, UniProt Q16762); assay: Inhibition of refolded Rhodanese (unknown origin)-mediated conversion of cyanide to thiocyanate treated with compound after refolding of the denatured enzyme
T2 sequence (Q16762 whole entry): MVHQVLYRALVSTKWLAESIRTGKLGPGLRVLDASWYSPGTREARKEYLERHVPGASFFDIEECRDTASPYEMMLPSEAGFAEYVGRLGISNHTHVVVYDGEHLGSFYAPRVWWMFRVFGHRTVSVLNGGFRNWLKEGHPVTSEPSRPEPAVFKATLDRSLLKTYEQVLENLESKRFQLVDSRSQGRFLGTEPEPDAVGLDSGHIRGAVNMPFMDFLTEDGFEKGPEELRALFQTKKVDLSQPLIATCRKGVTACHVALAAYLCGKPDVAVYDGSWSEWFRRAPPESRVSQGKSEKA

DLD-1 = assay: Cytotoxicity against human DLD-1 cells assessed as reduction in cell viability measured after 48 hrs by AlamarBlue assay; assay type: functional, cell-based; conditions: DLD-1, 48 h
HEK293 = assay: as §1; assay type: cell-based; conditions: hek293, 48 h

T1 sequence (P0A6F5 whole entry, looked up): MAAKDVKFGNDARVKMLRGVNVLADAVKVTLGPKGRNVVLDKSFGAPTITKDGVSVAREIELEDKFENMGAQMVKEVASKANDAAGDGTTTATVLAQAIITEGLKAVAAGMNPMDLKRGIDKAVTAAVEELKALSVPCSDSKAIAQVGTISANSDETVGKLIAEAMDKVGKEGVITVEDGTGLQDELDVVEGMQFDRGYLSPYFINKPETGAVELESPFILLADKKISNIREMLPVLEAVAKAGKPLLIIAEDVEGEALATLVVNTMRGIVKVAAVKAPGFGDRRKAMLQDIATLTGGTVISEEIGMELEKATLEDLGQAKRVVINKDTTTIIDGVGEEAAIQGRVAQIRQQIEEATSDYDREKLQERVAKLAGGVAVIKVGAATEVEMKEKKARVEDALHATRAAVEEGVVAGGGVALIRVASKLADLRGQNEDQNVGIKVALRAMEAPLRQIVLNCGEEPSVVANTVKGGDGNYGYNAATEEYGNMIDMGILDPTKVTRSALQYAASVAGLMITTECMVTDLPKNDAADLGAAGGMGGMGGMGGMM

| Compound | IC50 (E. coli GroEL/ES [1]) [µM] | CC50 (FHC) [µM] | IC50 (E. coli GroEL/ES [2]) [µM] | EC50 (HT-29) [µM] | IC50 (HSP60/HSP10) [µM] | CC50 at 48 h [3] [µM] | IC50 [4] [µM] | EC50 (HCT-116) [µM] | CC50 at 48 h [5] [µM] | CC50 [6] [µM] | IC50 [7] [µM] | EC50 (DLD-1) [µM] | CC50 [3] [µM] | CC50 (HEK293) [µM] |
| --- | --- | --- | --- | --- | --- | --- | --- | --- | --- | --- | --- | --- | --- | --- |
| O=S(=O)(Nc1ccc(-c2nc3cc(NS(=O)(=O)c4ccc(Cl)s4)ccc3o2)cc1)c1ccc(Cl)c(C(F)(F)F)c1 | 2.8 | 63 | 8.3 | 21 | 6.7 | 21 | > 62.5 | 17 | 34 | 56 |  |  |  |  |
| Nc1ccc(S(=O)(=O)Nc2ccc(-c3nc4cc(NS(=O)(=O)c5ccc(N)cc5)ccc4o3)cc2)cc1 |  | 65 | 3.1 | 24 | 44 | 39 | > 62.5 | 17 | 63 | 53 | > 100 | 47 |  |  |
| O=S(=O)(Nc1ccc(-c2nc3cc(NS(=O)(=O)c4cccc(C(F)(F)F)c4)ccc3o2)cc1)c1cccc(C(F)(F)F)c1 | 14 | 56 |  |  | 54 | 24 | > 62.5 | 14 | 23 | > 100 |  |  |  |  |
| O=S(=O)(Nc1ccc(-c2nc3cc(NS(=O)(=O)c4ccccc4Cl)ccc3o2)cc1)c1ccccc1Cl | 40 | 45 | 43 | 15 |  | 25 | > 62.5 | 12 | 46 | 38 | > 100 | 17 |  |  |
| O=S(=O)(Nc1ccc(-c2nc3cc(NS(=O)(=O)c4ccc(Br)cc4)ccc3o2)cc1)c1ccc(Br)cc1 | 16 |  | 34 | 17 |  | 18 | > 62.5 | 11 | 22 | > 100 | > 100 |  |  |  |
| COc1ccc(S(=O)(=O)Nc2ccc3oc(-c4ccc(NS(=O)(=O)c5cc(F)ccc5OC)cc4)nc3c2)cc1 | 18 | > 100 | 30 | 15 | > 100 |  | > 62.5 | 15 |  | > 100 | > 100 | 18 | 25 | 24 |
| O=S(=O)(Nc1ccc(-c2nc3cc(NS(=O)(=O)c4cccc5ccccc45)ccc3o2)cc1)c1cccc2ccccc12 | 43 |  | 35 | 31 |  | 49 | > 62.5 | 20 | > 100 | 52 | > 100 | 34 |  |  |
| Cc1ccc(S(=O)(=O)Nc2ccc(-c3nc4ccc(NS(=O)(=O)c5ccc(C)cc5)cc4[nH]3)cc2)cc1 | 24 | > 100 | 46 | 21 | 79 | 22 | > 62.5 | 14 | 38 | 96 | > 100 | 25 |  |  |
| O=C(Nc1ccc(Sc2nc3ccccc3s2)cc1)c1cc(Br)cc(Br)c1O | 3.2 | 74 | 2.2 | 21 | 5.9 | 19 | 6.6 | 19 | 69 | 75 |  | 20 |  |  |
| COc1ccccc1S(=O)(=O)Nc1ccc(-c2nc3cc(NS(=O)(=O)c4ccccc4OC)ccc3o2)cc1 | 43 | 74 | 33 | 16 | 87 | 48 | > 62.5 | 9.2 | 28 | 81 | > 100 | 6.6 |  |  |
| COc1ccc(S(=O)(=O)Nc2ccc(-c3nc4cc(NS(=O)(=O)c5ccc(OC)cc5)ccc4o3)cc2)cc1 | 30 | 57 | 56 | 40 |  | 60 | > 62.5 | 12 | 48 | 40 | > 100 | 28 |  |  |
| O=S(=O)(Nc1ccc(-c2nc3cc(NS(=O)(=O)c4ccc(C(F)(F)F)cc4)ccc3o2)cc1)c1ccc(C(F)(F)F)cc1 | 19 | 57 | 34 | 13 | 57 | 21 | > 62.5 | 15 | 29 | 69 | > 100 | 10 |  |  |
| COc1ccc(S(=O)(=O)Nc2ccc3oc(-c4ccc(NC(=O)C5CCN(C(C)=O)CC5)cc4)nc3c2)cc1 | 38 | > 100 | 61 | 16 | 24 |  | > 62.5 | 15 |  | 84 | > 100 | 15 | 31 | 34 |
| COc1ccc(S(=O)(=O)Nc2ccc3oc(-c4ccc(NS(=O)(=O)c5cc(Br)ccc5OC)cc4)nc3c2)cc1 | 27 | > 100 | 22 | 14 | 67 |  | > 62.5 | 12 |  | > 100 | > 100 | 15 | 16 | 18 |
| O=C(Nc1ccc(Sc2nc3ccccc3s2)cc1)c1cccc(Br)c1O | 42 | 59 | 37 | 9.3 | > 100 | 12 | > 62.5 | 8.9 | 33 | 75 |  | 12 |  |  |
| COc1c(Br)cccc1C(=O)Nc1ccc(Sc2nc3ccccc3s2)cc1 |  |  |  | 30 |  | > 100 | > 62.5 | 31 | > 100 |  |  | 40 |  |  |
| O=S(=O)(Nc1ccc(-c2nc3cc(NS(=O)(=O)c4ccccc4)ccc3o2)cc1)c1ccccc1 |  | 30 | 18 | 16 | 86 | 23 | > 62.5 | 13 | 25 | > 100 | > 100 | 16 |  |  |
| O=S(=O)(Nc1ccc(-c2nc3cc(NS(=O)(=O)c4ccc(F)cc4)ccc3o2)cc1)c1ccc(F)cc1 |  | 27 | 19 | 17 | 63 | 22 | > 62.5 | 12 | 31 | 63 | > 100 | 18 |  |  |
| O=S(=O)(Nc1ccc(-c2nc3cc(NS(=O)(=O)c4ccc(Cl)s4)ccc3o2)cc1)c1ccc(Cl)s1 | 2.8 | 43 |  | 33 | 6.5 | 48 | 57 | 15 | 41 | 65 |  | 33 |  |  |
